Data as given in ChEMBL document CHEMBL5500412, “Discovery of Highly Selective, Potent, Covalent, and Orally Bioavailable Factor XIIa Inhibitors for the Treatment of Thrombo-Inflammation” (J Med Chem, 2024).
Active and inactive are the calls of the source. The calls are words filed in the database; no cut-off is given here.

Legend:
[1] = target: T1, Coagulation factor XII (Homo sapiens, UniProt P00748); assay: Inhibition of FXIIa (unknown origin) using H-D-Pro-Phe-Arg-pNA as substrate incubated for 20 mins followed by substrate addition by spectrophotometric analysis
T1 sequence (P00748 whole entry): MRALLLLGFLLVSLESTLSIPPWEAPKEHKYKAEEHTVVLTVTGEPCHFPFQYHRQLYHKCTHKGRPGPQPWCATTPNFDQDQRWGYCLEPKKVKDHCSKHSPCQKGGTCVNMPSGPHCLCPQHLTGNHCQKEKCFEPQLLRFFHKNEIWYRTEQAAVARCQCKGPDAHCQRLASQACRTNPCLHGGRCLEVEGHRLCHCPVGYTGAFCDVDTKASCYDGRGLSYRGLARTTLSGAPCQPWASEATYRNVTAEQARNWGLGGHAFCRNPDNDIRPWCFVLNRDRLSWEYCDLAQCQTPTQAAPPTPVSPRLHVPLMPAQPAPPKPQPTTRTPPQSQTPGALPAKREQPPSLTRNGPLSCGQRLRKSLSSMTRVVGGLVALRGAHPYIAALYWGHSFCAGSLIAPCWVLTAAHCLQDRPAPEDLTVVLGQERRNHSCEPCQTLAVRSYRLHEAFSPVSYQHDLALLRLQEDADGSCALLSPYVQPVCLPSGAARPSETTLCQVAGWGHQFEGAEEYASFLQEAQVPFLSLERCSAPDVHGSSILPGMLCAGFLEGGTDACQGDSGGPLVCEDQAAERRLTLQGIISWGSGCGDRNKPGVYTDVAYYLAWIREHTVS

[2] = target: Prothrombin (Homo sapiens, UniProt P00734); assay: Inhibition of thrombin (unknown origin) using H-D-Phe-Pip-Arg-pNA-2HCl as substrate incubated for 20 mins followed by substrate addition by spectrophotometric analysis
[3] = target: Plasma kallikrein (Homo sapiens, UniProt P03952); assay: Inhibition of PKal (unknown origin) using H-D-Pro-Phe-Arg-pNA-2HCl as substrate incubated for 20 mins followed by substrate addition by spectrophotometric analysis
[4] = target: Coagulation factor XI (Homo sapiens, UniProt P03951); assay: Inhibition of FXIa (unknown origin) using p-Glu-Pro-Arg-pNA.HCl as chromogenic substrate incubated for 20 mins followed by substrate addition by spectrophotometric analysis
[5] = target: Trypsin (Homo sapiens, UniProt P07477+P07478+P35030); assay: Inhibition of trypsin (unknown origin) using Bz-lle-Glu(gamma-OR)-Gly-Arg-pNA.HCl as chromogenic substrate incubated for 20 mins followed by substrate addition by spectrophotometric analysis; type: protein assay
[6] = target: Chymotrypsin (Homo sapiens, UniProt Q99895+P17538+P40313+Q6GPI1); assay: Inhibition of Chymotrypsin (unknown origin) using N-Suc-Ala-Ala-Pro-Phe-pNA as chromogenic substrate incubated for 20 mins followed by substrate addition by spectrophotometric analysis; type: protein assay
[7] = target: Tissue-type plasminogen activator (Homo sapiens, UniProt P00750); assay: Inhibition of tPA (unknown origin) using H-D-lle-Pro-Arg-pNA-2HCl as chromogenic substrate incubated for 20 mins followed by substrate addition by spectrophotometric analysis
[8] = Selectivity index, ratio of IC50 for thrombin (unknown origin) to IC50 for FXIIa (unknown origin)
[9] = Selectivity index, ratio of IC50 for PKal (unknown origin) to IC50 for FXIIa (unknown origin)
[10] = Selectivity index, ratio of IC50 for FXIa (unknown origin) to IC50 for FXIIa (unknown origin)
[11] = Selectivity index, ratio of IC50 for FXa (unknown origin) to IC50 for FXIIa (unknown origin)
[12] = Selectivity index, ratio of IC50 for trypsin (unknown origin) to IC50 for FXIIa (unknown origin)
[13] = Selectivity index, ratio of IC50 for chymotrypsin (unknown origin) to IC50 for FXIIa (unknown origin)
[14] = Selectivity index, ratio of IC50 for plasmin (unknown origin) to IC50 for FXIIa (unknown origin)
[15] = Selectivity index, ratio of IC50 for tPA (unknown origin) to IC50 for FXIIa (unknown origin)
[16] = target: T2, Coagulation factor XII (Homo sapiens) (UniProt P00748); assay: Covalent inhibition of FXIIa (unknown origin) at 20 to 40 nM measured after 10 mins; settings: dose 20-40 nM
T2 sequence (whole entry): T1 sequence (P00748 whole entry)

[17] = target: T1, Coagulation factor XII; assay: Binding affinity to FXIIa (unknown origin) assessed as inhibition constant using H-D-Pro-Phe-Arg-pNA.2HCl as substrate by spectrophotometric analysis
[18] = target: T2, Coagulation factor XII (Homo sapiens); assay: Binding affinity to FXIIa (unknown origin) assessed as inactivation rate using H-D-Pro-Phe-Arg-pNA.2HCl as substrate by spectrophotometric analysis
[19] = target: T2, Coagulation factor XII (Homo sapiens); assay: Inhibition of FXIIa (unknown origin) using H-D-Pro-Phe-Arg-pNA as substrate preincubated for 20 mins followed by 100 fold dilution upto 120 mins then substrate addition for 60 mins by jump dilution assay; settings: time <= 200.0 min
[20] = target: T2, Coagulation factor XII (Homo sapiens); assay: Binding affinity to FXIIa (unknown origin) assessed as Kinact/Ki using H-D-Pro-Phe-Arg-pNA.2HCl as substrate by spectrophotometric analysis
[21] = test system: RAW264.7; assay: Antiinflammatory activity in mouse RAW264.7 cells assessed as inhibition of LPS-induced IL-1 beta expression at 10 uM preincubated for 12 hrs followed by LPS stimulation and measured after 12 hrs by real time quantitative RT-PCR assay; type: functional, cell-based; settings: time 24.0 hrs
[22] = test system: RAW264.7; assay: Antiinflammatory activity in mouse RAW264.7 cells assessed as inhibition of LPS-induced IL-6 expression at 10 uM preincubated for 12 hrs followed by LPS stimulation and measured after 12 hrs by real time quantitative RT-PCR assay; type: functional, cell-based; settings: time 24.0 hrs
[23] = test system: Plasma; assay: Anticoagulant activity in human plasma assessed as prolongation of activated partial thromboplastin time at 300 uM incubated for 2 mins by aPTT reagent based assay relative to control; type: functional
[24] = test system: Plasma; assay: Anticoagulant activity in human plasma assessed as prolongation of […] time at 300 uM incubated for 2 mins by PT reagent based assay relative to control; type: functional
[25] = test system: Plasma; assay: Anticoagulant activity in human plasma assessed as prolongation of activated partial thromboplastin time incubated for 2 mins by aPTT reagent based assay; type: functional
[26] = test system: Plasma; assay: Anticoagulant activity in non-activated human plasma at 10 to 25 uM measured after 30 mins; type: functional, cell-free; settings: dose 10-25 µM

Coagulation factor XI, sequence (P03951 19-387 limits assumed): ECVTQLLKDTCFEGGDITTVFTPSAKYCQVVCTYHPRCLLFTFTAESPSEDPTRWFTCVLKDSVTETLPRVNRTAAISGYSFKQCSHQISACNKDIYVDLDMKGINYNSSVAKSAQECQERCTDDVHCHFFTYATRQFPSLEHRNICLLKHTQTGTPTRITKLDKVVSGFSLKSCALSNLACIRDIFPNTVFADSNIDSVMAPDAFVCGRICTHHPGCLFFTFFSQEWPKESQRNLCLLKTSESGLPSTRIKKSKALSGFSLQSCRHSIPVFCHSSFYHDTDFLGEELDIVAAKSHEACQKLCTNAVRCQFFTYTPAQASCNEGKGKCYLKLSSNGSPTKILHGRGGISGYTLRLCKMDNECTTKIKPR
Coagulation factor XI, sequence (P03951 388-625 limits assumed): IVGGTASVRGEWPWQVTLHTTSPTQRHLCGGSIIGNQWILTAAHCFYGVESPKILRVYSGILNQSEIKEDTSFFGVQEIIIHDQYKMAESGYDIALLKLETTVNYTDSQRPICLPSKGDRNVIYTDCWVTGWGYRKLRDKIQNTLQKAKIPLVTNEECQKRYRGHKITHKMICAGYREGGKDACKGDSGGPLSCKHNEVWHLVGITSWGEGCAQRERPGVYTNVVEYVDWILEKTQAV
Plasma kallikrein, sequence (P03952 20-390 limits assumed): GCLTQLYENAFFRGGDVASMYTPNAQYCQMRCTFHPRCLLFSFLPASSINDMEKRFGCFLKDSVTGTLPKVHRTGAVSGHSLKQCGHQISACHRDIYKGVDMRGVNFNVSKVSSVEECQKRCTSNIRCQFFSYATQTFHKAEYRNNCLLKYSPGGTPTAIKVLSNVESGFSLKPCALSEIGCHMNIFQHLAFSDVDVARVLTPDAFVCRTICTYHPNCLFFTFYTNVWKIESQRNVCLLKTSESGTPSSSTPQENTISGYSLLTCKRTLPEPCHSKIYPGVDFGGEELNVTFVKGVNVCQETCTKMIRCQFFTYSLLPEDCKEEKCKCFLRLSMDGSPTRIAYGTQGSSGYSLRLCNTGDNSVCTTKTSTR
Plasma kallikrein, sequence (P03952 391-638 limits assumed): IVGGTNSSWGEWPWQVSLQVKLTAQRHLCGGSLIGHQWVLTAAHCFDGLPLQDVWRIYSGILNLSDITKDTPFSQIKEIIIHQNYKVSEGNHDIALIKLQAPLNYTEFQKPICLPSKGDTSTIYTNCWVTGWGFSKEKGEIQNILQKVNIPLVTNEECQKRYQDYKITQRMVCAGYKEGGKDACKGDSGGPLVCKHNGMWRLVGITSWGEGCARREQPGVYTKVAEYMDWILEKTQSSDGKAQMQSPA
Tissue-type plasminogen activator, sequence (P00750 whole entry): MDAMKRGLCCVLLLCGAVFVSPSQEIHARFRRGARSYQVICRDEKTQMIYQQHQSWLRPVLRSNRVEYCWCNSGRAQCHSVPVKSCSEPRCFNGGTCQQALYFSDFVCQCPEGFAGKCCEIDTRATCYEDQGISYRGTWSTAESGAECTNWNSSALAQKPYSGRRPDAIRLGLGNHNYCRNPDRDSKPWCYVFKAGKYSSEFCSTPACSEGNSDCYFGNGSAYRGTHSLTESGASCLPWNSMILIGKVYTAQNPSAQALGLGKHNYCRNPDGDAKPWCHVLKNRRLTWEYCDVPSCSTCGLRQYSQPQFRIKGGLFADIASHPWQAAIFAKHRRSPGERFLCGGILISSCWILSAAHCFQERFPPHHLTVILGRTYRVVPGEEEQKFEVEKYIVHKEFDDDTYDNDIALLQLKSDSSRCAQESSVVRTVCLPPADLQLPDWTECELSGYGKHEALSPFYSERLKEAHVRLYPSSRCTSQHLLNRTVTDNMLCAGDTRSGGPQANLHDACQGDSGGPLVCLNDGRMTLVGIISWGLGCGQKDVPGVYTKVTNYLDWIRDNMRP

SMILES: Nc1nc(-c2ccccn2)nn1C(=O)c1cccc2ccccc12
- IC50 [1]: 35 nM
- IC50 [2]: 360 nM
- IC50 [3]: > 25000 nM
- IC50 [4]: > 25000 nM
- IC50 [5]: > 5000 nM
- IC50 [6]: > 5000 nM
- IC50 [7]: > 5000 nM
- Ratio IC50 [8]: 10
- Ratio IC50 [9]: > 710
- Ratio IC50 [10]: > 710
- Ratio IC50 [11]: > 140
- Ratio IC50 [12]: > 140
- Ratio IC50 [13]: > 140
- Ratio IC50 [14]: > 140
- Ratio IC50 [15]: > 140
- inhibition [16]: Active
- Ki [17]: 43.5 nM
- Kinact [18]: 0.026 min⁻¹
- inhibition [19]: inactive
- K [20]: 5.96 10^5/M/min
- Activity [21]: Active
- Activity [22]: Active
- Activity [23]: 303%
- Activity [24]: 17%
- EC1.5 [25]: 145 µM
- Activity [26]: inactive
